According to PMC10187093, “Synthesis, in silico modelling, and in vitro biological evaluation of substituted pyrazole derivatives as potential anti-skin cancer, anti-tyrosinase, and antioxidant agents” (Journal of Enzyme Inhibition and Medicinal Chemistry, 2023):
Where two headings read alike, the source gives them in different places.

Legend:
[1] = DPPH free radical scavenging assay; details: for Percent Scavenging (DPPH): 1 mM
Description: An initial screen was done of all 25 derivatives at a concentration of 1 mM. […] Methanol was used as the diluent, and 100 µL of DPPH (200 µM; Sigma-Aldrich, St. Louis, MO) was added to each well. […] The scavenging capacity (SC) was calculated as SC% = ((ΔAcontrol – ΔAsample)/ΔAcontrol) × 100%, where ΔAcontrol was the absorbance of the reagent blank, and ΔAsample was the absorbance of the test samples. The control contained all reagents except the compounds, and all tests were performed in triplicate. Quercetin served as a positive control. The DPPH methanolic solution (1 mL) mixed with DMSO (5 µL) served as a negative control.

GFP-A431 = experiment: MTT antiproliferative/cytotoxicity assay, A431; type: cell-based, human; details: for IC50: read-out: IC50 GFP-A431
Description: (§1) Human-derived GFP-expressing melanoma A375 and epidermoid carcinoma A431 cell lines were purchased from Angio-Proteomie (Boston, MA). Human melanoma carcinoma SK-MEL-28 and human immortalised keratinocytes (HaCaT) cell lines were acquired from American Type Culture Collection (ATCC; Manassas, VA). […] The growth media of incubated cells were changed every 2–3 days until they attained 70–80% confluence, after which they were sub-cultured for experiments and re-passaging. DMSO was used as the vehicle to prepare a 10 mM stock solution of the test compounds.
(§2) Stock solutions (10 mM) were prepared by dissolving each compound to be screened in DMSO.

A375 = experiment: MTT antiproliferative/cytotoxicity assay, A375; type: cell-based, human; details: read-out: IC50 A375
Description: (§3) Human-derived GFP-expressing melanoma A375 and epidermoid carcinoma A431 cell lines were purchased from Angio-Proteomie (Boston, MA). Human melanoma carcinoma SK-MEL-28 and human immortalised keratinocytes (HaCaT) cell lines were acquired from American Type Culture Collection (ATCC; Manassas, VA). Human cutaneous SCC cell line SCC-12[192] was generously provided by Dr. James G. Rheinwald to Dr. Tatiana Efimova. Except SK-MEL-28, which was cultured in an RPMI-1640 medium supplemented with 5% FBS, all other human immortalised cell lines were grown and maintained in DMEM containing varying percentages of FBS; 5% FBS for A431, SCC-12, and HaCaT lines, and 10% FBS for A375. All culture media were routinely supplemented with 1% PEST 100X (100 U/mL penicillin, 100 μg/mL streptomycin), and cells were cultured in incubators maintained at 37 °C under an atmosphere of 95% humidity, 20% O2, and 5% CO2. The growth media of incubated cells were changed every 2–3 days until they attained 70–80% confluence, after which they were sub-cultured for experiments and re-passaging. DMSO was used as the vehicle to prepare a 10 mM stock solution of the test compounds.
(§4) Stock solutions (10 mM) were prepared by dissolving each compound to be screened in DMSO. From these stock solutions, escalating concentrations were prepared using the corresponding cell growth media as a diluent, and the cells (65–75% confluent) were treated with (0–40 µM) or without the drug in sext- to octuplicate and incubated for 48 h. All treatment protocols and controls were prepared as previously described.
(§5) The potency and cytotoxicity of the test compounds against two cutaneous melanoma (A375 and SK-MEL-28) and two non-melanoma (A431 and SCC-12) SC cell lines in addition to a control immortalised normal human epidermal keratinocytes (HaCaT) cell line were assessed by MTT assay as previously described.

HaCaT = experiment: MTT cytotoxicity assay, noncancerous HaCaT keratinocytes; type: cell-based, human; details: 48 h, read-out: IC50 HaCaT
Description: as §3, §4, §5

SK-MEL-28 = experiment: MTT antiproliferative/cytotoxicity assay, SK-MEL-28; type: cell-based, human; details: read-out: IC50 SKMEL-28
Description: as §3, §4, §5

SCC-12 = experiment: MTT antiproliferative/cytotoxicity assay, SCC-12; type: cell-based, human; details: for IC50: read-out: IC50 SCC-12
Description: as §1, §2

mushroom tyrosinase = target: T1, mushroom tyrosinase (Agaricus bisporus, UniProt C7FF04); experiment: In vitro mushroom tyrosinase inhibition assay; type: biochemical; details: for inhibition at 500 µM: read-out: % Inhibition of tyrosinase; for IC50: > 500 = not biologically relevant
T1 construct: purchased Sigma-Aldrich Chemical Company (St. Louis, MO) and MP Biomedicals (Irvine, CA)
Description: The anti-tyrosinase potential of all the synthesised derivatives was determined by an enzymatic tyrosinase inhibition assay based on their ability to inhibit the substrate, L-tyrosine, from binding to the tyrosinase enzyme. […] Test samples were dissolved in DMSO at a concentration of 10 mM and then diluted to different concentrations with phosphate buffer (0.1 M, pH 6.8). Each well contained 40 µL of the sample with 80 µL of phosphate buffer solution (0.1 M, pH 6.8), 40 µL of tyrosinase enzyme (100 units/mL), and 40 µL L-tyrosine (2.5 mM). The mixture was incubated for 30 min at room temperature, and absorbance was measured at 490 nm. Each sample was accompanied by a sample blank containing all components except tyrosinase. […] The percentage of tyrosinase inhibition was calculated as follows: ((ΔAcontrol – ΔAsample)/ΔAcontrol) × 100. IC50 values denoted the sample concentration required to inhibit 50% tyrosinase activity (Table S1).

[2] = read-out: IC50 DPPH radical scavenging
[3] = Homo sapiens, A-375, 48 h, melanoma, MTT, 48 h
[4] = Homo sapiens, HaCaT, control noncancerous keratinocytes, MTT
[5] = Homo sapiens, A-431, 48 h, non-melanoma, MTT, 48 h
[6] = Homo sapiens, SCC12, 48 h, non-melanoma, MTT, 48 h
[7] = N.A. = No Activity, > 1000 = not biologically relevant, read-out: IC50 Value, DPPH antioxidant activity (Table S4)
[8] = Homo sapiens, SK-MEL-28, 48 h, melanoma, MTT, 48 h
[9] = 500 µM, single-concentration screen
[10] = read-out: IC50 Value, mushroom tyrosinase inhibition (Table S1)
[11] = IC50 HaCaT divided by IC50 A431
[12] = IC50 HaCaT divided by IC50 SCC-12

T1 sequence (C7FF04 1-392 limits assumed): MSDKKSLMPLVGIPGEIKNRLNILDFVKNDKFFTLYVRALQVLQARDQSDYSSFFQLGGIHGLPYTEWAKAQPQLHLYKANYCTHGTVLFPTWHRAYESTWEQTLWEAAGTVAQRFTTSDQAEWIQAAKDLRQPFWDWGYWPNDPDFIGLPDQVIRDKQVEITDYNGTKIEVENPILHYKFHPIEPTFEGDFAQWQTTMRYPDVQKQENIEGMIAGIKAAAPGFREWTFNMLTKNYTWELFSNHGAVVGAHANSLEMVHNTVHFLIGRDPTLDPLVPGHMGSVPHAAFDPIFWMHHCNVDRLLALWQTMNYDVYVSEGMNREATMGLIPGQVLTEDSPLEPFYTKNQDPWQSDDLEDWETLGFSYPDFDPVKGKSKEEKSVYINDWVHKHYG

Row | SMILES | IC50 (A375; [3]) [µM] | IC50 (HaCaT; [4]) [µM] | IC50 (GFP-A431; [5]) [µM] | IC50 (SCC-12; [6]) [µM] | Percent Scavenging (DPPH) [1] [%] | IC50 (SK-MEL-28; [8]) [µM] | inhibition at 500 µM (mushroom tyrosinase; [9]) [%] | IC50 (mushroom tyrosinase; [10]) [µM] | also measured
1 | Cc1cc(C(C)(C)C)c(O)c(C(C)(C)C)c1 [BHT, butylated hydroxytoluene, reference compound] |  |  |  |  |  |  |  |  | IC50 [1, 2]: 285 ± 7 µM
2 | Cc1ccc(-c2cc(C(F)(F)F)nn2-c2ccc(S(N)(=O)=O)cc2)cc1 [Celecoxib, celecoxib, reference compound] | 27 | 49.8 ± 8.2 |  |  |  |  |  |  | IC50 (GFP-A431; Homo sapiens, A-431, 48 h): 7.4 µM; IC50 (A375; melanoma, MTT, 48 h): 26.8 ± 2.7 µM; IC50 (SK-MEL-28; Homo sapiens, SK-MEL-28, melanoma, MTT, 48 h): 11.4 ± 2.4 µM
3 | N.N.[Cl][Pt][Cl] [Cisplatin, cisplatin, reference compound] |  |  |  |  |  |  |  |  | IC50 (GFP-A431; non-melanoma, MTT, 48 h): 7.7 ± 0.3 µM; IC50 (SCC-12; non-melanoma, MTT, 48 h): 4.4 ± 0.2 µM; IC50 (A375; melanoma, MTT, 48 h): 1.49 ± 0.44 µM; IC50 (HaCaT; control noncancerous keratinocytes, MTT): 3.4 ± 0.4 µM; IC50 (SK-MEL-28; melanoma, MTT, 48 h): 14.2 ± 0.24 µM
4 | CCc1c(C)n[nH]c1C [P1, 4-Ethyl-3,5-dimethyl-1H-pyrazole] | 47.7 ± 4.2 | 60.5 ± 3.9 | 41.6 ± 0.8 | 257 ± 18.4 | 5.85 | 42.8 ± 0.3 | 6.77 | > 500 | IC50 [1, 7]: > 1000 µM
5 | Cc1n[nH]c2c1CCC2 [P2, 3-Methyl-1,4,5,6-tetrahydrocyclopenta[c]pyrazole] | 54.3 ± 1.6 | 44.2 ± 1.1 | 43.9 ± 2.1 | 246 ± 37.3 | -5.84 | 42.6 ± 1.5 | 20.8 | > 500 | 
6 | Cc1cc(-c2ccccc2)n[nH]1 [P3, 5-Methyl-3-phenyl-1H-pyrazole] | 54.8 ± 2.7 | 42.1 ± 3.4 | 27.2 ± 0.9 | 546 ± 20.7 | -0.39 | 59.1 ± 4.6 | 42.6 | > 500 | selectivity index (SI) A431 (GFP-A431): 27.2 ± 0.9 (1.6); selectivity index (SI) SCC-12 (SCC-12): 546.5 ± 20.7 (0.1)
7 | Cc1[nH]nc(-c2ccccc2)c1Cl [P4, 4-Chloro-5-methyl-3-phenyl-1H-pyrazole] | 58.4 ± 4.5 | 76.1 | 70.8 ± 6.2 | 216 ± 13.4 | -0.84 | 62.3 ± 2.7 | 68.7 ± 0.4 | 197 | 
8 | Cc1[nH]nc2c1CCc1ccccc1-2 [P5, 3-Methyl-4,5-dihydro-2H-benzo[g]indazole] | 65.3 ± 4.2 | 265 ± 4.3 | 42.1 ± 3.1 | 77.6 ± 1.7 | -10.48 | 131 ± 2.4 | 40 | > 500 | selectivity index (SI) A431 (GFP-A431; [11]): 6.3; selectivity index (SI) SCC-12 (SCC-12; [12]): 3.4; DPPH antioxidant activity (in words) [1]: inactivity
9 | Cc1[nH]nc2c1ccc1ccccc12 [P6, 3-Methyl-2H-benzo[g]indazole] | 114 ± 3.3 | 147.2 ± 0.8 | 69.8 ± 7.5 | 49.9 ± 3.4 | 65.17 | 47.4 ± 1.2 | 81.7 ± 0.7 | > 500 | selectivity index (SI) A431 (GFP-A431; [11]): 2.1; selectivity index (SI) SCC-12 (SCC-12; [12]): 3.0; IC50 [1, 7]: 30.6 µM; IC50 [1, 2]: 30.6 ± 2.1 µM
10 | CCc1c(C)nn(-c2ccccc2)c1C [P7, 4-Ethyl-3,5-dimethyl-1-phenyl-1H-pyrazole] | 53.3 ± 4.2 | 59.2 ± 3.5 | 47.8 ± 2 | 43 ± 2.1 | 15.47 | 46 ± 1 | 55.5 | > 500 | IC50 [1, 7]: > 1000 µM
11 | Cc1nn(-c2ccccc2)c2c1CCC2 [P8, 3-Methyl-1-phenyl-1,4,5,6-tetrahydrocyclopenta[c]pyrazole] | 55.3 ± 3.8 | 44.5 ± 1.4 | 72.2 ± 5.2 | 120 ± 8.5 | -2.57 | 181 ± 4.7 | 67.2 ± 0.2 | 190 | 
12 | Cc1c2c(nn1-c1ccccc1)-c1ccccc1CC2 [P9, 3-Methyl-2-phenyl-4,5-dihydro-2H-benzo[g]indazole] | 45.2 ± 2 | 43.6 ± 1.4 | 28 ± 3.6 | 28.8 ± 1.4 | 5.48 | 40.8 ± 1 | 9.49 | > 500 | selectivity index (SI) A431 (GFP-A431; [11]): 1.6; selectivity index (SI) SCC-12 (SCC-12; [12]): 1.5; IC50 [1, 7]: > 1000 µM
13 | CCOC(=O)c1c(C)nn(-c2ccccc2)c1C [P10, Ethyl 3,5-dimethyl-1-phenyl-1H-pyrazole-4-carboxylate] |  |  |  |  | -11.90 |  |  |  | IC50 (GFP-A431; Homo sapiens, A-431, 48 h): 196 ± 3.8 µM; IC50 (SCC-12; Homo sapiens, SCC12, 48 h): 49.1 ± 2 µM; IC50 (A375; Homo sapiens, A-375, 48 h): 55.3 ± 2.5 µM; IC50 (HaCaT; Homo sapiens, HaCaT): 68 ± 1.2 µM; IC50 (SK-MEL-28; Homo sapiens, SK-MEL-28, 48 h): 43.7 ± 2.7 µM; IC50 (mushroom tyrosinase; IC50 Value, mushroom tyrosinase inhibition (Table S1)): > 500 µM; inhibition at 500 µM (mushroom tyrosinase): 31%
14 | Cc1cc(-c2ccccc2)no1 [P11, 5-Methyl-3-phenylisoxazole] | 57.8 ± 6.5 | 116 ± 10.1 | 43.7 ± 2.7 | 44.6 ± 1.3 | -27.39 | 34.5 ± 1.2 | 88 ± 0.3 | 173 | selectivity index (SI) A431 (GFP-A431; [11]): 2.6; selectivity index (SI) SCC-12 (SCC-12; [12]): 2.6
15 | Cc1cc(-c2ccccc2)n(-c2ccc(S(N)(=O)=O)cc2)n1 [P19, 4-(3-Methyl-5-phenyl-1H-pyrazol-1-yl)benzenesulfonamide] | 47.1 ± 4.2 | 57 ± 1.3 |  |  | -18.51 | 40.5 ± 3 | 21.2 | > 500 | 
16 | OC[C@H]1O[C@@H](Oc2ccc(O)cc2)[C@H](O)[C@@H](O)[C@@H]1O [arbutin, 4-hydroxyphenyl β-D-glucopyranoside, reference compound] |  |  |  |  |  |  | 59 ± 0.4 |  | 
17 | O=C1O[C@H]([C@@H](O)CO)C(O)=C1O [ascorbic acid, reference compound] |  |  |  |  |  |  |  |  | IC50 [1, 2]: 25.2 ± 1.4 µM
18 | O=c1c(O)c(-c2ccc(O)c(O)c2)oc2cc(O)cc(O)c12 [quercetin, reference compound] |  |  |  |  | 60 |  |  |  | Percent Scavenging (DPPH) ([1]; listed as Quercetin): 60.83%
